In patent US20250092056A1, “URACIL DERIVATIVES HAVING VIRUS REPLICATION INHIBITORY ACTIVITY AND PHARMACEUTICAL COMPOSITION COMPRISING THE SAME” (Shionogi & Co., Ltd., priority 2022, published 2025):

test system: SARS-CoV-2; assay: Cytopathic effect (CPE) suppression effect confirmation test using HEK293T/ACE2-TMPRSS2 cells; type: cell-based; details: Severe acute respiratory syndrome coronavirus 2, HEK-293T, 72 h, read-out: EC50 (50% SARS-CoV-2 infected cell death inhibitory concentration), HEK293T/ACE2-TMPRSS2 cells, CPE suppression, CellTiter-Glo 2.0 after 3 days culture

Compound | EC50 [nM]
N#CCn1c(N2CC3(CCOC3)C2)c(-c2cccc(Cl)c2)c(=O)n(-c2cncc(Cl)c2)c1=O [Compound I-182] | 1.7
N#CCn1c(N2CC(CO)C2)c(-c2ccc(F)c(Cl)c2)c(=O)n(-c2cncc(Cl)c2)c1=O [Compound I-249] | 7.9
N#CCn1c(N2CC(C(F)(F)F)C2)c(-c2ccc(F)c(Cl)c2)c(=O)n(-c2cncc(Cl)c2)c1=O [Compound I-086] | 3.31
CC(C)(O)C1CN(c2c(-c3ccc(F)c(Cl)c3)c(=O)n(-c3cncc(Cl)c3)c(=O)n2CC#N)C1 [Compound I-072] | 5.21

same assay, conditions: Severe acute respiratory syndrome coronavirus 2, HEK-293T, 72 h, read-out: EC50 (50% SARS-CoV-2 infected cell death inhibitory concentration), class, HEK293T/ACE2-TMPRSS2 cells, CPE suppression, CellTiter-Glo 2.0 after 3 days culture

Compound | EC50 [nM]
Cc1cncc(-n2c(=O)c(Cc3cc(F)c(F)c(F)c3)c(N3CCC(C(F)(F)F)CC3)n(CC#N)c2=O)c1 [Compound I-119] | < 100
N#CCn1c(N2CC3(CCOC3)C2)c(Cc2cc(F)c(F)c(F)c2)c(=O)n(-c2cncc(Cl)c2)c1=O [Compound I-059] | < 100
N#CCn1c(N2CCC3(CNC(=O)C3)C2)c(-c2ccc(F)c(Cl)c2)c(=O)n(-c2cncc(Cl)c2)c1=O (racemic) [Compound I-063] | 100 to 1000
N#CCn1c(N2Cc3ccccc3C2)c(-c2cccc(Cl)c2)c(=O)n(Cc2ccc[nH]c2=O)c1=O [Compound I-124] | < 100
N#CCn1c(Cl)c(-c2ccc(F)c(Cl)c2)c(=O)n(-c2cnc3cc(Cl)ccn23)c1=O [Compound I-126] | 1000 to 5000
CN1CCN(c2c(-c3ccc(F)c(Cl)c3)c(=O)n(-c3cncc(Cl)c3)c(=O)n2CC#N)CC1=O [Compound I-068] | < 100
Cc1cncc(-n2c(=O)c(-c3ccc(F)c(Cl)c3)c(Oc3cccc4[nH]ccc34)n(CC#N)c2=O)c1 [Compound I-028] | < 100
Cc1cc(-n2c(=O)c(-c3ccc(F)c(Cl)c3)c(-c3cc4ccccc4s3)n(CC#N)c2=O)cc(=O)[nH]1 [Compound I-173] | < 100
Cc1cncc(-n2c(=O)c(-c3cccc4ccccc34)c(N3Cc4cn[nH]c4C3)n(CC#N)c2=O)c1 [Compound I-016] | < 100
CCCOc1cc(Cl)cc(-c2c(N3Cc4ccccc4C3)n(CC#N)c(=O)n(-c3cncc(C)c3)c2=O)c1 [Compound I-041] | < 100
Cn1cnc(Cn2c(=O)c(-c3cccc(Cl)c3)c(N3Cc4ccccc4C3)n(CC#N)c2=O)n1 [Compound I-122] | 1000 to 5000
Cc1cncc(-n2c(=O)c(Cc3cc(F)c(F)c(F)c3)c(N3CCC(C(F)F)C3)n(CC#N)c2=O)c1 (racemic) [Compound I-107] | < 100
N#CCn1c(N2Cc3cn[nH]c3C2)c(Cc2cc(F)c(F)c(F)c2)c(=O)n(-c2cncc(Cl)c2)c1=O [Compound I-064] | < 100
N#CCn1c(N2CC3(CCOC3)C2)c(-c2ccc(F)c(Cl)c2)c(=O)n(-c2cnc3ccc(F)cn23)c1=O [Compound I-130] | < 100
Cc1cc(-n2c(=O)c(-c3ccc(F)c(Cl)c3)c(-c3nc4ccccc4s3)n(CC#N)c2=O)cc(=O)[nH]1 [Compound I-189] | < 100
Cc1cncc(-n2c(=O)c(-c3ccc(F)c(Cl)c3)c(Oc3ccc(F)cc3Cl)n(CC#N)c2=O)c1 [Compound I-030] | < 100
Cc1cncc(-n2c(=O)c(-c3ccc(F)c(Cl)c3)c(N3CC4(CCOC4)C3)n(CC#N)c2=O)n1 [Compound I-192] | < 100
Cc1cncc(-n2c(=O)c(-c3ccc(F)c(Cl)c3)c(N3CCC(C(F)(F)F)CC3)n(CC#N)c2=O)n1 [Compound I-199] | < 100
Cn1cnc(Cn2c(=O)c(Cc3cc(F)c(F)c(F)c3)c(N3Cc4ccccc4C3)n(CC#N)c2=O)n1 [Compound I-008] | 100 to 1000

same assay, conditions: Severe acute respiratory syndrome coronavirus 2, HEK-293T, 72 h; HEK293T/ACE2-TMPRSS2 cells, CPE suppression, CellTiter-Glo 2.0 after 3 days culture; read-out: EC50 (50% SARS-CoV-2 infected cell death inhibitory concentration), class

Compound | EC50 [nM]
Cc1cc(-n2c(=O)c(Cc3cc(F)c(F)c(F)c3)c(N3Cc4ccccc4C3)n(CC#N)c2=O)cc(=O)[nH]1 [Compound I-159] | 100 to 1000
Cc1cc(-n2c(=O)c(-c3cc(F)c(F)c(Cl)c3)c(N3CCC(C(F)(F)F)CC3)n(CC#N)c2=O)cc(=O)[nH]1 [Compound I-034] | < 100
N#CCn1c(Cl)c(-c2ccc(F)c(Cl)c2)c(=O)n(-c2cncc(Cl)c2)c1=O [Compound I-055] | 100 to 1000

biological target: Recombinant SARS-CoV-2 3CL Protease (Severe acute respiratory syndrome coronavirus 2 (2019-nCoV) (SARS-CoV-2), UniProt P0DTD1); assay: biochemical; type: biochemical; details: 50% SARS-CoV-2 3CL protease inhibitory concentration; read-out: IC50

Compound | IC50 [nM]
Cc1cc(-n2c(=O)c(Cc3cc(F)c(F)c(F)c3)c(N3Cc4ccccc4C3)n(CC#N)c2=O)cc(=O)[nH]1 [Compound I-159] | 10 to 100
N#CCn1c(N2CC3(CCOC3)C2)c(-c2cccc(Cl)c2)c(=O)n(-c2cncc(Cl)c2)c1=O [Compound I-182] | 0.4
Cc1cncc(-n2c(=O)c(Cc3cc(F)c(F)c(F)c3)c(N3CCC(C(F)(F)F)CC3)n(CC#N)c2=O)c1 [Compound I-119] | < 10
Cc1cc(-n2c(=O)c(-c3cc(F)c(F)c(Cl)c3)c(N3CCC(C(F)(F)F)CC3)n(CC#N)c2=O)cc(=O)[nH]1 [Compound I-034] | 10 to 100
N#CCn1c(N2CC3(CCOC3)C2)c(Cc2cc(F)c(F)c(F)c2)c(=O)n(-c2cncc(Cl)c2)c1=O [Compound I-059] | < 10
N#CCn1c(N2CCC3(CNC(=O)C3)C2)c(-c2ccc(F)c(Cl)c2)c(=O)n(-c2cncc(Cl)c2)c1=O (racemic) [Compound I-063] | < 10
N#CCn1c(N2CC(CO)C2)c(-c2ccc(F)c(Cl)c2)c(=O)n(-c2cncc(Cl)c2)c1=O [Compound I-249] | 0.54
N#CCn1c(Cl)c(-c2ccc(F)c(Cl)c2)c(=O)n(-c2cncc(Cl)c2)c1=O [Compound I-055] | 10 to 100
N#CCn1c(N2Cc3ccccc3C2)c(-c2cccc(Cl)c2)c(=O)n(Cc2ccc[nH]c2=O)c1=O [Compound I-124] | < 10
N#CCn1c(Cl)c(-c2ccc(F)c(Cl)c2)c(=O)n(-c2cnc3cc(Cl)ccn23)c1=O [Compound I-126] | > 100
CN1CCN(c2c(-c3ccc(F)c(Cl)c3)c(=O)n(-c3cncc(Cl)c3)c(=O)n2CC#N)CC1=O [Compound I-068] | < 10
N#CCn1c(N2CC(C(F)(F)F)C2)c(-c2ccc(F)c(Cl)c2)c(=O)n(-c2cncc(Cl)c2)c1=O [Compound I-086] | 0.7
Cc1cncc(-n2c(=O)c(-c3ccc(F)c(Cl)c3)c(Oc3cccc4[nH]ccc34)n(CC#N)c2=O)c1 [Compound I-028] | < 10
CC(C)(O)C1CN(c2c(-c3ccc(F)c(Cl)c3)c(=O)n(-c3cncc(Cl)c3)c(=O)n2CC#N)C1 [Compound I-072] | 0.66
Cc1cc(-n2c(=O)c(-c3ccc(F)c(Cl)c3)c(-c3cc4ccccc4s3)n(CC#N)c2=O)cc(=O)[nH]1 [Compound I-173] | < 10
Cc1cncc(-n2c(=O)c(-c3cccc4ccccc34)c(N3Cc4cn[nH]c4C3)n(CC#N)c2=O)c1 [Compound I-016] | < 10
CCCOc1cc(Cl)cc(-c2c(N3Cc4ccccc4C3)n(CC#N)c(=O)n(-c3cncc(C)c3)c2=O)c1 [Compound I-041] | < 10
Cn1cnc(Cn2c(=O)c(-c3cccc(Cl)c3)c(N3Cc4ccccc4C3)n(CC#N)c2=O)n1 [Compound I-122] | > 100
Cc1cncc(-n2c(=O)c(Cc3cc(F)c(F)c(F)c3)c(N3CCC(C(F)F)C3)n(CC#N)c2=O)c1 (racemic) [Compound I-107] | < 10
N#CCn1c(N2Cc3cn[nH]c3C2)c(Cc2cc(F)c(F)c(F)c2)c(=O)n(-c2cncc(Cl)c2)c1=O [Compound I-064] | < 10
N#CCn1c(N2CC3(CCOC3)C2)c(-c2ccc(F)c(Cl)c2)c(=O)n(-c2cnc3ccc(F)cn23)c1=O [Compound I-130] | < 10
Cc1cc(-n2c(=O)c(-c3ccc(F)c(Cl)c3)c(-c3nc4ccccc4s3)n(CC#N)c2=O)cc(=O)[nH]1 [Compound I-189] | < 10
Cc1cncc(-n2c(=O)c(-c3ccc(F)c(Cl)c3)c(Oc3ccc(F)cc3Cl)n(CC#N)c2=O)c1 [Compound I-030] | < 10
Cc1cncc(-n2c(=O)c(-c3ccc(F)c(Cl)c3)c(N3CC4(CCOC4)C3)n(CC#N)c2=O)n1 [Compound I-192] | < 10
Cc1cncc(-n2c(=O)c(-c3ccc(F)c(Cl)c3)c(N3CCC(C(F)(F)F)CC3)n(CC#N)c2=O)n1 [Compound I-199] | < 10
Cn1cnc(Cn2c(=O)c(Cc3cc(F)c(F)c(F)c3)c(N3Cc4ccccc4C3)n(CC#N)c2=O)n1 [Compound I-008] | > 100
